Test results published in PubChem BioAssay AID1845194 (Molecular Pharmacology Branch, DTP, NCI, 2023).

Tested on: 287954-098-R-J1 tumor spheroid viability
Test: Anticancer human tumor 287954-098-R-J1 patient-derived Ewing sarcoma cell line growth inhibition
Settings: spheroids with HUVEC and MSC; for IC50: curve of first compound; for viability, T/C: stronger effect = lower value
In short: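 Complex spheroids of malignant cells with endothelial cells and mesenchymal stem cells; agents alone or combined, from near clinical Cmax (or 10 microM if unknown) down in half-log steps, 0.25% DMSO final.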

[1] = second compound 30 pM, first compound 0.0316 µM
[2] = second compound 30 pM, first compound 0.1 µM
[3] = second compound 30 pM, first compound 0.316 µM
[4] = second compound 30 pM, first compound 1 µM
[5] = second compound 30 pM, first compound 3.16 µM
[6] = second compound 30 pM, first compound 10 µM
[7] = second compound 94.9 pM, first compound 0.0316 µM
[8] = second compound 94.9 pM, first compound 0.1 µM
[9] = second compound 94.9 pM, first compound 0.316 µM
[10] = second compound 94.9 pM, first compound 1 µM
[11] = second compound 94.9 pM, first compound 3.16 µM
[12] = second compound 94.9 pM, first compound 10 µM
[13] = second compound 0.0003 µM, first compound 0.0316 µM
[14] = second compound 0.0003 µM, first compound 0.1 µM
[15] = second compound 0.0003 µM, first compound 0.316 µM
[16] = second compound 0.0003 µM, first compound 1 µM
[17] = second compound 0.0003 µM, first compound 3.16 µM
[18] = second compound 0.0003 µM, first compound 10 µM
[19] = second compound 0.000949 µM, first compound 0.0316 µM
[20] = second compound 0.000949 µM, first compound 0.1 µM
[21] = second compound 0.000949 µM, first compound 0.316 µM
[22] = second compound 0.000949 µM, first compound 1 µM
[23] = second compound 0.000949 µM, first compound 3.16 µM
[24] = second compound 0.000949 µM, first compound 10 µM
[25] = second compound 0.003 µM, first compound 0.0316 µM
[26] = second compound 0.003 µM, first compound 0.1 µM
[27] = second compound 0.003 µM, first compound 0.316 µM
[28] = second compound 0.003 µM, first compound 1 µM
[29] = second compound 0.003 µM, first compound 3.16 µM
[30] = second compound 0.003 µM, first compound 10 µM
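Note: spheroids exposed to compound for 7 days before viability readout.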
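Throughout, for viability, T/C: luminescent signal taken as surrogate of viable cell content; 100% = DMSO vehicle control viability and lower means growth inhibition.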

CC1COCCN1c1cc(-c2ccnn2C)c2ccnc(-c3ccn[nH]3)c2n1 (stereo not given) + COc1cc2c(cc1O)CCNC21CSC2c3c(OC(C)=O)c(C)c4c(c3C(COC1=O)N1C(O)C3Cc5cc(C)c(OC)c(O)c5C(C21)N3C)OCO4
IC50 (second compound 30 pM): 74.6 nM | IC50 (second compound 94.9 pM): 48.3 nM | IC50 (second compound 0.0003 µM): < 31.6 nM | IC50 (second compound 0.000949 µM): < 31.6 nM | IC50 (second compound 0.003 µM): < 31.6 nM | viability, T/C [1]: 111% | viability, T/C [2]: 28.8% | viability, T/C [3]: 7.3% | viability, T/C [4]: 4.7% | viability, T/C [5]: 1.8% | viability, T/C [6]: 2.96% | viability, T/C [7]: 73.7% | viability, T/C [8]: 9.38% | viability, T/C [9]: 3.08% | viability, T/C [10]: 1.84% | viability, T/C [11]: 1.08% | viability, T/C [12]: 2.57% | viability, T/C [13]: 2.38% | viability, T/C [14]: 1.69% | viability, T/C [15]: 1.1% | viability, T/C [16]: 0.7% | viability, T/C [17]: 0.69% | viability, T/C [18]: 0.94% | viability, T/C [19]: 0.28% | viability, T/C [20]: 0.34% | viability, T/C [21]: 0.31% | viability, T/C [22]: 0.09% | viability, T/C [23]: 0.03% | viability, T/C [24]: 0.13% | viability, T/C [25]: 0.19% | viability, T/C [26]: 0.19% | viability, T/C [27]: 0.14% | viability, T/C [28]: 0.12% | viability, T/C [29]: 0.11% | viability, T/C [30]: 0.22%

Cc1cc(C)c(CNC(=O)c2cc(-c3ccc(CN4CCOCC4)cc3)cc3c2cnn3C2CCCC2)c(=O)[nH]1 + CC[C@@]1(O)C(=O)OCc2c1cc1n(c2=O)Cc2cc3c(CN(C)C)c(O)ccc3nc2-1
IC50 (second compound 0.003 µM): > 10000 nM | IC50 (second compound 0.00949 µM): > 10000 nM | IC50 (second compound 0.03 µM): < 31.6 nM | IC50 (second compound 0.0949 µM): < 31.6 nM | IC50 (second compound 0.3 µM): < 31.6 nM | viability, T/C [25]: 104% | viability, T/C [26]: 106% | viability, T/C [27]: 98.6% | viability, T/C [28]: 96.5% | viability, T/C [29]: 102% | viability, T/C [30]: 119% | viability, T/C (second compound 0.00949 µM, first compound 0.0316 µM): 100% | viability, T/C (second compound 0.00949 µM, first compound 0.1 µM): 114% | viability, T/C (second compound 0.00949 µM, first compound 0.316 µM): 102% | viability, T/C (second compound 0.00949 µM, first compound 1 µM): 108% | viability, T/C (second compound 0.00949 µM, first compound 3.16 µM): 104% | viability, T/C (second compound 0.00949 µM, first compound 10 µM): 104% | viability, T/C (second compound 0.03 µM, first compound 0.0316 µM): 12.5% | viability, T/C (second compound 0.03 µM, first compound 0.1 µM): 42.9% | viability, T/C (second compound 0.03 µM, first compound 0.316 µM): 21.1% | viability, T/C (second compound 0.03 µM, first compound 1 µM): 36.1% | viability, T/C (second compound 0.03 µM, first compound 3.16 µM): 28.2% | viability, T/C (second compound 0.03 µM, first compound 10 µM): 18.9% | viability, T/C (second compound 0.0949 µM, first compound 0.0316 µM): 2.57% | viability, T/C (second compound 0.0949 µM, first compound 0.1 µM): 2.37% | viability, T/C (second compound 0.0949 µM, first compound 0.316 µM): 2.24% | viability, T/C (second compound 0.0949 µM, first compound 1 µM): 2.24% | viability, T/C (second compound 0.0949 µM, first compound 3.16 µM): 2.58% | viability, T/C (second compound 0.0949 µM, first compound 10 µM): 2.04% | viability, T/C (second compound 0.3 µM, first compound 0.0316 µM): 2.22% | viability, T/C (second compound 0.3 µM, first compound 0.1 µM): 2.08% | viability, T/C (second compound 0.3 µM, first compound 0.316 µM): 2.15% | viability, T/C (second compound 0.3 µM, first compound 1 µM): 2.38% | viability, T/C (second compound 0.3 µM, first compound 3.16 µM): 2.39% | viability, T/C (second compound 0.3 µM, first compound 10 µM): 1.61%

COc1ccc([C@@H](O)c2cc(-c3ncnc4cc(N5CCOCC5)ccc34)c(F)cc2Cl)nn1 + COc1cc2c(cc1O)CCNC21CSC2c3c(OC(C)=O)c(C)c4c(c3C(COC1=O)N1C(O)C3Cc5cc(C)c(OC)c(O)c5C(C21)N3C)OCO4
IC50 (second compound 30 pM): > 10000 nM | IC50 (second compound 94.9 pM): > 10000 nM | IC50 (second compound 0.0003 µM): 587 nM | IC50 (second compound 0.000949 µM): < 31.6 nM | IC50 (second compound 0.003 µM): < 31.6 nM | viability, T/C [1]: 101% | viability, T/C [2]: 99.2% | viability, T/C [3]: 100% | viability, T/C [4]: 109% | viability, T/C [5]: 104% | viability, T/C [6]: 94.3% | viability, T/C [7]: 109% | viability, T/C [8]: 112% | viability, T/C [9]: 108% | viability, T/C [10]: 109% | viability, T/C [11]: 108% | viability, T/C [12]: 72.8% | viability, T/C [13]: 109% | viability, T/C [14]: 109% | viability, T/C [15]: 103% | viability, T/C [16]: 4.2% | viability, T/C [17]: 0.48% | viability, T/C [18]: 1.07% | viability, T/C [19]: 0.54% | viability, T/C [20]: 0.53% | viability, T/C [21]: 0.35% | viability, T/C [22]: 0.22% | viability, T/C [23]: 0.12% | viability, T/C [24]: 0.32% | viability, T/C [25]: 0.43% | viability, T/C [26]: 0.47% | viability, T/C [27]: 0.36% | viability, T/C [28]: 0.33% | viability, T/C [29]: 0.32% | viability, T/C [30]: 0.48%
